Reference: publication PMC3399817 (PLoS ONE, 2012)

Tests used:
Test in all cases: KINOMEscan
Assay type in all cases: binding
ACVR1B = biological target: T1, ACVR1B (Homo sapiens, UniProt P36896); conditions: 1 uM
T1 construct: purchased Ambit KINOMEscan (DiscoverX)
Protocol: (§1) First, we used Ambit's KINOMEscan™ technology to identify those kinases that are inhibited for substrate binding by the compounds, all assayed at 1 μM. Second, we used Invitrogen's SelectScreen® Biochemical Kinase Profiling Service to determine the in vitro IC50s for the compounds against specific kinases.

ANKK1 = biological target: T2, ANKK1 (Homo sapiens, UniProt Q8NFD2); conditions: ANKK1, 1 uM
T2 construct: purchased Ambit KINOMEscan (DiscoverX)
Protocol: as §1

AURKA = biological target: T3, AURKA (Homo sapiens, UniProt O14965); conditions: 1 uM
T3 construct: purchased Ambit KINOMEscan (DiscoverX)
T3 sequence (O14965 whole entry): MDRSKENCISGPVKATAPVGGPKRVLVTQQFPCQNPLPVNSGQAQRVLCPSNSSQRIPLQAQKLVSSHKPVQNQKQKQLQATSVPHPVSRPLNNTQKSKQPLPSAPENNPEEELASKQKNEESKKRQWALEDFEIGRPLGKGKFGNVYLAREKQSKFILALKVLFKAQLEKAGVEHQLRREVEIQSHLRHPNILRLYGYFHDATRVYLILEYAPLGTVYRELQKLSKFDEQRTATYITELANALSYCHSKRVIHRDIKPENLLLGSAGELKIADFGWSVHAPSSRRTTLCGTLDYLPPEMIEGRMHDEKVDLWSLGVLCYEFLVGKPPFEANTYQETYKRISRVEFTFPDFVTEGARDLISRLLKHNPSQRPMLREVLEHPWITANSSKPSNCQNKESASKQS
Protocol: as §1

CDK2 = biological target: T4, CDK2 (Homo sapiens, UniProt P24941); conditions: CDK2, 1 uM
T4 construct: purchased Ambit KINOMEscan (DiscoverX)
Protocol: as §1

CSNK2A1 = biological target: T5, CSNK2A1 (Homo sapiens, UniProt P68400); conditions: CSNK2A1, 1 uM
T5 construct: purchased Ambit KINOMEscan (DiscoverX)
Protocol: as §1

DMPK = biological target: T6, DMPK (Homo sapiens, UniProt Q09013); conditions: 1 uM
T6 construct: purchased Ambit KINOMEscan (DiscoverX)
Protocol: as §1

FGFR3 = biological target: T7, FGFR3 (Homo sapiens, UniProt P22607); conditions: FGFR3, 1 uM
T7 construct: purchased Ambit KINOMEscan (DiscoverX)
Protocol: as §1

FGFR3(G697C) = biological target: T8, FGFR3(G697C) (Homo sapiens, UniProt P22607, G697C); conditions: 1 uM
T8 construct: purchased Ambit KINOMEscan (DiscoverX)
Protocol: as §1

FRK = biological target: T9, FRK (Homo sapiens, UniProt P42685); conditions: 1 uM
T9 construct: purchased Ambit KINOMEscan (DiscoverX)
T9 sequence (P42685 whole entry): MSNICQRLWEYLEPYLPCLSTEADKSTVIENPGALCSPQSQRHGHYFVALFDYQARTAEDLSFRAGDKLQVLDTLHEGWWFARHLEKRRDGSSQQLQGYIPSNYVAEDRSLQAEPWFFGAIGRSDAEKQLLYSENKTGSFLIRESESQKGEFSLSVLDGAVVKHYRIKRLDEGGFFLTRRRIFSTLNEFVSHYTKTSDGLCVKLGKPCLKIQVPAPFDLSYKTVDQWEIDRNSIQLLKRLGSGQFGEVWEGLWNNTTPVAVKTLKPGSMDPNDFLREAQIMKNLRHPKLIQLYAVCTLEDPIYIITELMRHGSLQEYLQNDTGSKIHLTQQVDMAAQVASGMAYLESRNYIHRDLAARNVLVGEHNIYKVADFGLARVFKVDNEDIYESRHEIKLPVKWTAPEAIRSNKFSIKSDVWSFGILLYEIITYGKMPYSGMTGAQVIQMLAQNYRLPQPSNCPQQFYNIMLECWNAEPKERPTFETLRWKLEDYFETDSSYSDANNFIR
Protocol: as §1

GSK3A = biological target: T10, GSK3A (Homo sapiens, UniProt P49840); conditions: for % binding compared to no inhibitor control: GSK3A, 1 uM
T10 construct: purchased Ambit KINOMEscan (DiscoverX)
T10 sequence (P49840 whole entry): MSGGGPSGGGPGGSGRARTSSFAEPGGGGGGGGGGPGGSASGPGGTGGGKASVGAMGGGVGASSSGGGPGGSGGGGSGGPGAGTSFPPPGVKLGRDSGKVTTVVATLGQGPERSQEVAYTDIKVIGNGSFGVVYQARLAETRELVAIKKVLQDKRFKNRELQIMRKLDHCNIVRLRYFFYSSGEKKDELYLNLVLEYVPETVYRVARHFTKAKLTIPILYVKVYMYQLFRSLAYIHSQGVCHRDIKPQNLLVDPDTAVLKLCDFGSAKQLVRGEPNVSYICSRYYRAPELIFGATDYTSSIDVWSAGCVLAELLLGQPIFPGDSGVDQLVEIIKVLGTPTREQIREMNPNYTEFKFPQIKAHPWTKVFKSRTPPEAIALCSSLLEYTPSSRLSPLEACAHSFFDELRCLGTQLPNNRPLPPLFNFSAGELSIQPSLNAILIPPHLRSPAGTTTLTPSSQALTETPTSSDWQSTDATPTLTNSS
Protocol: as §1

GSK3B = biological target: T11, GSK3B (Homo sapiens, UniProt P49841); conditions: for % binding compared to no inhibitor control: GSK3B, 1 uM
T11 construct: purchased Ambit KINOMEscan (DiscoverX)
T11 sequence (P49841 whole entry): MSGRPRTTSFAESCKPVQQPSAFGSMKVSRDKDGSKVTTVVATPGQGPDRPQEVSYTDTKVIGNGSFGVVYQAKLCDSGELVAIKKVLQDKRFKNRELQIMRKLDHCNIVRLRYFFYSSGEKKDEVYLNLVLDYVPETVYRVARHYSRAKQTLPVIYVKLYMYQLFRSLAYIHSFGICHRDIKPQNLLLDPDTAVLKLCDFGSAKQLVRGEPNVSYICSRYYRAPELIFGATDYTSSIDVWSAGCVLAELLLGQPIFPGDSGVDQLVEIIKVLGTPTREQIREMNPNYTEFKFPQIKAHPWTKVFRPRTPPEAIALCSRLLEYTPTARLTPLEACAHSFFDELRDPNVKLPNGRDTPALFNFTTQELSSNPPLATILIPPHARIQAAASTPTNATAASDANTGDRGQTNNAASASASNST
Protocol: as §1

HCK = biological target: T12, HCK (Homo sapiens, UniProt P08631); conditions: 1 uM
T12 construct: purchased Ambit KINOMEscan (DiscoverX)
Protocol: as §1

HIPK1 = biological target: T13, HIPK1 (Homo sapiens, UniProt Q86Z02); conditions: for % binding compared to no inhibitor control: HIPK1, 1 uM
T13 construct: purchased Ambit KINOMEscan (DiscoverX)
T13 sequence (Q86Z02 whole entry): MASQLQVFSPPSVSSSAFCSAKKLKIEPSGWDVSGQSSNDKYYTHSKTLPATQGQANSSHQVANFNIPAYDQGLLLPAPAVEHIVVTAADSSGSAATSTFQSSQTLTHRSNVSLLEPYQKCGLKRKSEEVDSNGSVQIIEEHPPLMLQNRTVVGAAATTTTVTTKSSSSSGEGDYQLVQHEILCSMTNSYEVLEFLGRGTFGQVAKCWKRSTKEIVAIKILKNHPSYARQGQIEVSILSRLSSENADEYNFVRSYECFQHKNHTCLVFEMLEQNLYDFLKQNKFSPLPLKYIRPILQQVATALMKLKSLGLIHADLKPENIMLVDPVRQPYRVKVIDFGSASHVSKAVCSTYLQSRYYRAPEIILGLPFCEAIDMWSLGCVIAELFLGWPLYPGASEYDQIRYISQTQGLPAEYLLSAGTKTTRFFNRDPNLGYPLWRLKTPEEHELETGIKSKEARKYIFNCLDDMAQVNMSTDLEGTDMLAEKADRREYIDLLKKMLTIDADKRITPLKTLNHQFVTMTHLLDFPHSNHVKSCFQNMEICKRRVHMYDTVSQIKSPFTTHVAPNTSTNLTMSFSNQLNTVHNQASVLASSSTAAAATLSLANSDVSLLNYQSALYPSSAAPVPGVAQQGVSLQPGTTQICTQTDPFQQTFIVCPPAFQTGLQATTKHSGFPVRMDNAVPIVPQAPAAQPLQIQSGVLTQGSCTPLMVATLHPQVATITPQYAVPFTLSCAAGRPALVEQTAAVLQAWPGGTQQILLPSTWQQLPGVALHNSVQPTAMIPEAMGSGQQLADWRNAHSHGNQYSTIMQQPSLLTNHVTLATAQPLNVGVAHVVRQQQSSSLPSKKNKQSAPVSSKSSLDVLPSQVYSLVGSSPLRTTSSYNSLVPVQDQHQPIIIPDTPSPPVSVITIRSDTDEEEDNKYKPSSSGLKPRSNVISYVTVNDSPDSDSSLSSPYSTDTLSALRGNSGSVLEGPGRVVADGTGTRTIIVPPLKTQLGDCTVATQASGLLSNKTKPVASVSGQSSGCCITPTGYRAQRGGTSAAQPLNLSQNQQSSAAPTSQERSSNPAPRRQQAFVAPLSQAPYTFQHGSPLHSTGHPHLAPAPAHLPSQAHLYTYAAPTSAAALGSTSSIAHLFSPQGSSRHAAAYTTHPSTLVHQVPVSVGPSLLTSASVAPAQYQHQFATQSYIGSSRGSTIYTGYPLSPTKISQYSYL
Protocol: as §1

ICK = biological target: T14, ICK (Homo sapiens, UniProt Q9UPZ9); conditions: 1 uM
T14 construct: purchased Ambit KINOMEscan (DiscoverX)
Protocol: as §1

IRAK1 = biological target: T15, IRAK1 (Homo sapiens, UniProt P51617); conditions: IRAK1, 1 uM
T15 construct: purchased Ambit KINOMEscan (DiscoverX)
Protocol: as §1

KIT(D816V) = biological target: T16, KIT(D816V) (Homo sapiens, UniProt P10721, D816V); conditions: 1 uM
T16 construct: purchased Ambit KINOMEscan (DiscoverX)
Protocol: as §1

MAK = biological target: T17, MAK (Homo sapiens, UniProt P20794); conditions: 1 uM
T17 construct: purchased Ambit KINOMEscan (DiscoverX)
Protocol: as §1

MAP3K15 = biological target: T18, MAP3K15 (Homo sapiens, UniProt Q6ZN16); conditions: MAP3K15, 1 uM
T18 construct: purchased Ambit KINOMEscan (DiscoverX)
Protocol: as §1

MAPKAPK5 = biological target: T19, MAPKAPK5 (Homo sapiens, UniProt Q8IW41); conditions: MAPKAPK5, 1 uM
T19 construct: purchased Ambit KINOMEscan (DiscoverX)
Protocol: as §1

MARK2 = biological target: T20, MARK2 (Homo sapiens, UniProt Q7KZI7); conditions: MARK2, 1 uM
T20 construct: purchased Ambit KINOMEscan (DiscoverX)
Protocol: as §1

MST4 = biological target: T21, MST4 (Homo sapiens, UniProt Q9P289); conditions: MST4, 1 uM
T21 construct: purchased Ambit KINOMEscan (DiscoverX)
Protocol: as §1

NEK9 = biological target: T22, NEK9 (Homo sapiens, UniProt Q8TD19); conditions: NEK9, 1 uM
T22 construct: purchased Ambit KINOMEscan (DiscoverX)
Protocol: as §1

PAK4 = biological target: T23, PAK4 (Homo sapiens, UniProt O96013); conditions: PAK4, 1 uM
T23 construct: purchased Ambit KINOMEscan (DiscoverX)
Protocol: as §1

PAK6 = biological target: T24, PAK6 (Homo sapiens, UniProt Q9NQU5); conditions: PAK6, 1 uM
T24 construct: purchased Ambit KINOMEscan (DiscoverX)
Protocol: as §1

PIK3C2B = biological target: T25, PIK3C2B (Homo sapiens, UniProt O00750); conditions: 1 uM
T25 construct: purchased Ambit KINOMEscan (DiscoverX)
Protocol: as §1

PKN2 = biological target: T26, PKN2 (Homo sapiens, UniProt Q16513); conditions: PKN2, 1 uM
T26 construct: purchased Ambit KINOMEscan (DiscoverX)
Protocol: as §1

PRKCQ = biological target: T27, PRKCQ (Homo sapiens, UniProt Q04759); conditions: 1 uM
T27 construct: purchased Ambit KINOMEscan (DiscoverX)
Protocol: as §1

PYK2 = biological target: T28, PYK2 (Homo sapiens, UniProt Q14289); conditions: PYK2, 1 uM
T28 construct: purchased Ambit KINOMEscan (DiscoverX)
Protocol: as §1

ROCK1 = biological target: T29, ROCK1 (Homo sapiens, UniProt Q13464); conditions: for % binding compared to no inhibitor control: ROCK1, 1 uM
T29 construct: purchased Ambit KINOMEscan (DiscoverX)
T29 sequence (Q13464 whole entry): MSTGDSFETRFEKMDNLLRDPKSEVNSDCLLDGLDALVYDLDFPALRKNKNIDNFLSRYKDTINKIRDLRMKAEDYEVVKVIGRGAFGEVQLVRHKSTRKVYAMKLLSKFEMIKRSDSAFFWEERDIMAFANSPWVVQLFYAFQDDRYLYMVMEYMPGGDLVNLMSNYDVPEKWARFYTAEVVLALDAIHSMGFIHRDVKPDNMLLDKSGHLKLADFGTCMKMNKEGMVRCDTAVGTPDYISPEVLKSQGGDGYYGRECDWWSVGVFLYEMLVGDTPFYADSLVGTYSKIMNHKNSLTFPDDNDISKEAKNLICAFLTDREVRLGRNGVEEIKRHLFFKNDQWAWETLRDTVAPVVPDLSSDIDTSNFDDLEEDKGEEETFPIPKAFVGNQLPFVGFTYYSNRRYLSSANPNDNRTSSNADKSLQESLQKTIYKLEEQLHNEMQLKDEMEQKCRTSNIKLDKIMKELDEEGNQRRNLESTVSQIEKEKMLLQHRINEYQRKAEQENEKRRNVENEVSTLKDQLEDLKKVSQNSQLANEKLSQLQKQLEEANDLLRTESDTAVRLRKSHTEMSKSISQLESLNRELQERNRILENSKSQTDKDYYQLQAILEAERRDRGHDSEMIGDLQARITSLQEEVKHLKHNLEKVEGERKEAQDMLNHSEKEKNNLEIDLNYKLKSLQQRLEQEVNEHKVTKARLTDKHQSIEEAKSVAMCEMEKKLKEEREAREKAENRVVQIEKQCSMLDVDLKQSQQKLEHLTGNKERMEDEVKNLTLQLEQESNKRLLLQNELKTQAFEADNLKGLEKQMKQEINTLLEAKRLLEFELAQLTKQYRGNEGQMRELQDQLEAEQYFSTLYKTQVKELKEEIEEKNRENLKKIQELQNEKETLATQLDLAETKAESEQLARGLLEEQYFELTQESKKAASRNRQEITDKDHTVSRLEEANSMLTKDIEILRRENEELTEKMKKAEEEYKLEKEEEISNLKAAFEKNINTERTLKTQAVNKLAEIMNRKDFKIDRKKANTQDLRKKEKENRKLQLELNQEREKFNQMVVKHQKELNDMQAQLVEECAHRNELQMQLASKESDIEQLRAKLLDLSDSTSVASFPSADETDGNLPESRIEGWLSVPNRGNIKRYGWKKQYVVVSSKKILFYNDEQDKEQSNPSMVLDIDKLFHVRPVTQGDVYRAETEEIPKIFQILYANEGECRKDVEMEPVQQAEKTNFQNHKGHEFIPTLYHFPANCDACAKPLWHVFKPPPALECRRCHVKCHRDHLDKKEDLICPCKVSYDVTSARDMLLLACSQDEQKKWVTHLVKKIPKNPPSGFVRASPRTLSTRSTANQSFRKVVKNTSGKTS
Protocol: as §1

[1] = biological target: T30, RPS6KA4(Kin.Dom.1-N-terminal) (Homo sapiens, UniProt O75676); conditions: 1 uM
T30 construct: RPS6KA4(Kin.Dom.1-N-terminal); purchased Ambit KINOMEscan (DiscoverX)
Protocol: as §1

STK16 = biological target: T31, STK16 (Homo sapiens, UniProt O75716); conditions: STK16, 1 uM
T31 construct: purchased Ambit KINOMEscan (DiscoverX)
T31 sequence (O75716 whole entry): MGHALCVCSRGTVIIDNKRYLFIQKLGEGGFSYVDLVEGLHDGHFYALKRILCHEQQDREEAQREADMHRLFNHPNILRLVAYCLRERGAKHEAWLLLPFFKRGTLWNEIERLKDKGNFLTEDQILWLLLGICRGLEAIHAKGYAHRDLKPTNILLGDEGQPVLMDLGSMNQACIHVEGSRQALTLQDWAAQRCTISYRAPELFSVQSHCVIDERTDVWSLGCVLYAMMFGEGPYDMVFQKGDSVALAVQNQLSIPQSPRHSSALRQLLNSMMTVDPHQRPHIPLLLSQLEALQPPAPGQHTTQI
Protocol: as §1

TIE1 = biological target: T32, TIE1 (Homo sapiens, UniProt P35590); conditions: TIE1, 1 uM
T32 construct: purchased Ambit KINOMEscan (DiscoverX)
Protocol: as §1

TLK1 = biological target: T33, TLK1 (Homo sapiens, UniProt Q9UKI8); conditions: TLK1, 1 uM
T33 construct: purchased Ambit KINOMEscan (DiscoverX)
Protocol: as §1

TRKB = biological target: T34, TRKB (Homo sapiens, UniProt Q16620); conditions: 1 uM
T34 construct: purchased Ambit KINOMEscan (DiscoverX)
Protocol: as §1

WEE1 = biological target: T35, WEE1 (Homo sapiens, UniProt P30291); conditions: WEE1, 1 uM
T35 construct: purchased Ambit KINOMEscan (DiscoverX)
Protocol: as §1

YANK2 = biological target: T36, YANK2 (Homo sapiens, UniProt Q9NY57); conditions: YANK2, 1 uM
T36 construct: purchased Ambit KINOMEscan (DiscoverX)
Protocol: as §1

YANK3 = biological target: T37, YANK3 (Homo sapiens, UniProt Q86UX6); conditions: YANK3, 1 uM
T37 construct: purchased Ambit KINOMEscan (DiscoverX)
Protocol: as §1

YSK1 = biological target: T38, YSK1 (Homo sapiens, UniProt O00506); conditions: YSK1, 1 uM
T38 construct: purchased Ambit KINOMEscan (DiscoverX)
Protocol: as §1

p38-gamma = biological target: T39, p38-gamma (Homo sapiens, UniProt P53778); conditions: 1 uM
T39 construct: purchased Ambit KINOMEscan (DiscoverX)
T39 sequence (P53778 whole entry): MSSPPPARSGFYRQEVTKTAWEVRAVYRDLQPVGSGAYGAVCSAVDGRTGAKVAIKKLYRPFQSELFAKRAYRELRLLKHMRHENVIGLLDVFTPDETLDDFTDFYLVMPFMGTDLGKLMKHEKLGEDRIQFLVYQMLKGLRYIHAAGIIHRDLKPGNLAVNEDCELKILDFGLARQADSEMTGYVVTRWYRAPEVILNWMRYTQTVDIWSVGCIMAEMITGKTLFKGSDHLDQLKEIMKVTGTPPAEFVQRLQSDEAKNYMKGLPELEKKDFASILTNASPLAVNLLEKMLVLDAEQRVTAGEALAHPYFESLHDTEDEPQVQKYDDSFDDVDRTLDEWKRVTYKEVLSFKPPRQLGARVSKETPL
Protocol: as §1

Compound: COc1ccc(-c2cc3nccn3c(Nc3ncccc3C(N)=O)n2)cc1OC.Cl.Cl [BAY61-3606, 2-[7-(3,4-dimethoxyphenyl)-imidazo [1,2-c]pyrimidin-5-ylamino] nicotinamide dihydrochloride, reference compound]
- % binding compared to no inhibitor control (ACVR1B): 100%
- % binding compared to no inhibitor control (ANKK1): 21%
- % binding compared to no inhibitor control (AURKA): 91%
- % binding compared to no inhibitor control (CDK2): 86%
- % binding compared to no inhibitor control (CSNK2A1): 70%
- % binding compared to no inhibitor control (DMPK): 72%
- % binding compared to no inhibitor control (FGFR3): 100%
- % binding compared to no inhibitor control (FGFR3(G697C)): 83%
- % binding compared to no inhibitor control (FRK): 100%
- % binding compared to no inhibitor control (GSK3A): 17%
- % inhibition ATP binding (GSK3A; GSK3α, KINOMEscan, 1 μM): 83%
- % binding compared to no inhibitor control (GSK3B): 39%
- % inhibition ATP binding (GSK3B; GSK3β, KINOMEscan, 1 μM): 61%
- % binding compared to no inhibitor control (HCK): 88%
- % binding compared to no inhibitor control (HIPK1): 8.8%
- % inhibition ATP binding (HIPK1; HIPK1, KINOMEscan, 1 μM): 91.2%
- % binding compared to no inhibitor control (ICK): 23%
- % binding compared to no inhibitor control (IRAK1): 8%
- % binding compared to no inhibitor control (KIT(D816V)): 4.7%
- % binding compared to no inhibitor control (MAK): 68%
- % binding compared to no inhibitor control (MAP3K15): 100%
- % binding compared to no inhibitor control (MAPKAPK5): 100%
- % binding compared to no inhibitor control (MARK2): 63%
- % binding compared to no inhibitor control (MST4): 57%
- % binding compared to no inhibitor control (NEK9): 90%
- % binding compared to no inhibitor control (PAK4): 85%
- % binding compared to no inhibitor control (PAK6): 65%
- % binding compared to no inhibitor control (PIK3C2B): 60%
- % binding compared to no inhibitor control (PKN2): 34%
- % binding compared to no inhibitor control (PRKCQ): 88%
- % binding compared to no inhibitor control (PYK2): 94%
- % binding compared to no inhibitor control (ROCK1): 3.2%
- % inhibition ATP binding (ROCK1; ROCK1, KINOMEscan, 1 μM): 96.8%
- % binding compared to no inhibitor control [1]: 32%
- % binding compared to no inhibitor control (STK16): 30%
- % binding compared to no inhibitor control (TIE1): 100%
- % binding compared to no inhibitor control (TLK1): 89%
- % binding compared to no inhibitor control (TRKB): 83%
- % binding compared to no inhibitor control (WEE1): 89%
- % binding compared to no inhibitor control (YANK2): 86%
- % binding compared to no inhibitor control (YANK3): 53%
- % binding compared to no inhibitor control (YSK1): 53%
- % binding compared to no inhibitor control (p38-gamma): 47%

Compound: COc1ccccc1Nc1nc(-c2ccc(OC)c(OC)c2)cc2nccn12 [BAY derivative 6]
- % binding compared to no inhibitor control (ACVR1B): 100%
- % binding compared to no inhibitor control (ANKK1): 100%
- % binding compared to no inhibitor control (AURKA): 87%
- % binding compared to no inhibitor control (CDK2): 100%
- % binding compared to no inhibitor control (CSNK2A1): 86%
- % binding compared to no inhibitor control (DMPK): 100%
- % binding compared to no inhibitor control (FGFR3): 100%
- % binding compared to no inhibitor control (FGFR3(G697C)): 70%
- % binding compared to no inhibitor control (FRK): 84%
- % binding compared to no inhibitor control (GSK3A): 100%
- % binding compared to no inhibitor control (GSK3B): 100%
- % binding compared to no inhibitor control (HCK): 83%
- % binding compared to no inhibitor control (HIPK1): 85%
- % binding compared to no inhibitor control (ICK): 100%
- % binding compared to no inhibitor control (IRAK1): 92%
- % binding compared to no inhibitor control (KIT(D816V)): 22%
- % binding compared to no inhibitor control (MAK): 100%
- % binding compared to no inhibitor control (MAP3K15): 86%
- % binding compared to no inhibitor control (MAPKAPK5): 100%
- % binding compared to no inhibitor control (MARK2): 65%
- % binding compared to no inhibitor control (MST4): 72%
- % binding compared to no inhibitor control (NEK9): 100%
- % binding compared to no inhibitor control (PAK4): 90%
- % binding compared to no inhibitor control (PAK6): 99%
- % binding compared to no inhibitor control (PIK3C2B): 100%
- % binding compared to no inhibitor control (PKN2): 91%
- % binding compared to no inhibitor control (PRKCQ): 100%
- % binding compared to no inhibitor control (PYK2): 100%
- % binding compared to no inhibitor control (ROCK1): 81%
- % binding compared to no inhibitor control [1]: 74%
- % binding compared to no inhibitor control (STK16): 47%
- % binding compared to no inhibitor control (TIE1): 94%
- % binding compared to no inhibitor control (TLK1): 57%
- % binding compared to no inhibitor control (TRKB): 74%
- % binding compared to no inhibitor control (WEE1): 100%
- % binding compared to no inhibitor control (YANK2): 100%
- % binding compared to no inhibitor control (YANK3): 100%
- % binding compared to no inhibitor control (YSK1): 82%
- % binding compared to no inhibitor control (p38-gamma): 56%
